pIC50: −log10 of the molar value.
Key:
[1] = NMR-based stability assay in cell culture medium; format: physicochemical; conditions: ~8 mM in DMSO-d6 diluted 1:3 with DMEM + 10% FCS; NMR at 37°C for 16 hours; compared with Example Compound 1; Figures 1-3
Thrombin = Thrombin (Homo sapiens, UniProt P00734); experiment: Biochemical inhibition assay, fluorogenic substrate FSR-AMC; conditions: read-out: Thrombin IC50; Thrombin 9.8·10^-5 NIH unit/mL; 30 min incubation with inhibitor; FSR-AMC 20 µM; Tris pH 7.5
Method: (§1) In a 384 well plate, 5 µL of eleven concentrations of inhibitor in 8% DMSO (serial dilution 2:1) and a blank were incubated with an equal amount of enzyme (KLK6, Thrombin, Trypsin or Factor Xa) diluted in 50 mM Tris pH 7.5, 150 mM NaCl, 1 mM EDTA, 0.05% Tween20 assay buffer for 30 minutes. […] Inhibition of the enzyme as a function of the inhibitor concentration was used to generate dose response curves, which allowed estimating IC50 values, according to the following equation in GraphPad Prism: y = ymin + (ymax−ymin)/(1+10^(((LogIC50−x)*HillSlope))) [formula]
(§2) Assay final concentrations: • KLK6: 5 nM • Trypsin: 0.88 ng/mL • Thrombin: 9.8·10^-5 NIH unit/mL • Factor Xa: 4 nM • FSR-AMC: 20 µM

Trypsin = Trypsin (Homo sapiens, UniProt P07477); experiment: as above; conditions: read-out: Trypsin IC50; Trypsin 0.88 ng/mL; 30 min incubation with inhibitor; FSR-AMC 20 µM; Tris pH 7.5
Method: as §1, §2

Factor Xa = Factor Xa (Homo sapiens, UniProt P00742); experiment: as above; conditions: read-out: Factor Xa IC50; Factor Xa 4 nM; 30 min incubation with inhibitor; FSR-AMC 20 µM; Tris pH 7.5
Method: as §1, §2

KLK6 = KLK6 (Homo sapiens, UniProt Q92876); experiment: as above; conditions: read-out: KLK6 IC50; KLK6 5 nM (produced in insect cells); 30 min incubation with inhibitor; FSR-AMC 20 µM; Tris pH 7.5
Method: as §1, §2

Sequence of Factor Xa (P00742 235-488 limits assumed): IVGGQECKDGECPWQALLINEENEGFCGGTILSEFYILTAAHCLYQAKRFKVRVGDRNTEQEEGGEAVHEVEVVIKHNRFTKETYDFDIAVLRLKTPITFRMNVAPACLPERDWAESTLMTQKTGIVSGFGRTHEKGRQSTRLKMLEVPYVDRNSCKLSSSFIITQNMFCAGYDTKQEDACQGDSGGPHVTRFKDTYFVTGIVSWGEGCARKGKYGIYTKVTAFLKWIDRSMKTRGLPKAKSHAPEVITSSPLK
Sequence of Factor Xa (P00742 41-179 partner limits assumed): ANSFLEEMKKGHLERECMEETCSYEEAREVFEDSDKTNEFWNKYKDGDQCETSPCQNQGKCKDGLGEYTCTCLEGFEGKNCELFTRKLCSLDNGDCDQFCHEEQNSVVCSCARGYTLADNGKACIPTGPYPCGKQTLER

stability in cell culture medium (ester hydrolysis) [1] | pIC50 (Thrombin) | pIC50 (Trypsin) | pIC50 (Factor Xa) | pIC50 (KLK6) | SMILES
totally enhanced | – | – | – | – | Cc1nn(-c2ccccc2)c(C)c1NC(=O)COC(=O)Cc1c(C)[nH]c2ccccc12 [Example Compound 38, 2-((3,5-dimethyl-1-phenyl-1H-pyrazol-4-yl)amino)-2-oxoethyl 2-(2-methyl-1H-indol-3-yl)acetate]
further stabilizing properties | – | – | – | – | Cc1nn(-c2ccccc2)c(C)c1NC(=O)COC(=O)C(C)c1c(C)[nH]c2ccccc12 (centres unmarked) [Example Compound 81, 2-((3,5-dimethyl-1-phenyl-1H-pyrazol-4-yl)amino)-2-oxoethyl 2-(2-methyl-1H-indol-3-yl)propanoate]
– | < 3.70 | < 3.70 | < 3.70 | 5.18 | COc1ccc(NC(=O)COC(=O)Cc2c(C)[nH]c3ccccc23)cc1 [compound 80]
– | < 3.70 | < 3.70 | < 3.70 | 4.56 | Cc1nn(-c2ccccc2)c(C)c1NC(=O)COC(=O)Cc1ccccc1N=[N+]=[N-] [compound 82]
– | < 3.70 | < 3.70 | < 3.70 | 4.84 | Cc1nn(-c2ccccc2)c(C)c1NC(=O)COC(=O)C(C)c1c[nH]c2ccccc12 (centres unmarked) [compound 83]
– | 4.04 | 4.09 | 4.17 | 5.49 | Cc1[nH]c2ccccc2c1CC(=O)OCC(=O)Nc1cccc(C(N)=O)c1 [compound 84]
– | < 3.70 | < 3.70 | 3.80 | 3.76 | Cc1[nH]c2ccccc2c1CC(=O)OCC(=O)NCc1ncc[nH]1 [compound 85]
– | 4.85 | 5.04 | 4.74 | 5.54 | Cc1nn(-c2ccccc2)c(C)c1N(C)C(=O)COC(=O)Cc1c(C)[nH]c2ccccc12 [compound 88]

Reference: EP3305781A1, “CHEMICAL SUBSTANCES WHICH INHIBIT THE ENZYMATIC ACTIVITY OF HUMAN KALLIKREIN-RELATED PEPTIDASE 6 (KLK6)” (Deutsches Krebsforschungszentrum, priority 2016, dated 2018)
